Source: patent publication US9321773B2, “Compounds” (Respivert Ltd, priority 2009, dated 2016)
“Also recorded” adds a separate entry of the source. Read-outs that look alike come from different tables or passages of the source.

Legend:
[1] = test system: PMA-differentiated U937 cells; test: MTT Assay (cell viability); assay type: cell-based, Human; conditions: percentage loss of cell viability; for Cell Viability MTT Assay in D-U937 cells at 4 hr: 4 hr in 5% FCS; for Cell Viability MTT Assay in D-U937 cells at 24 hr: 24 hr in 10% FCS
Outline: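 Differentiated U937 cells treated with compound for 4 hr (5% FCS) or 24 hr (10% FCS), then given MTT for 1 hr; formazan dissolved in DMSO and absorbance read at 550 nm. Viability loss expressed as % versus 0.5% DMSO vehicle.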

[2] = Stereochemical analysis by chiral stationary phase HPLC (atropisomerism); assay type: physicochemical; conditions: chiral stationary phase HPLC (16 different conditions for the examples)
[3] = test system: cigarette smoke-induced pulmonary macrophage and neutrophil influx; test: Cigarette Smoke Model; assay type: in vivo, mouse; conditions: A/J mice; for anti-inflammatory activity (BALF neutrophils and alveolar macrophages), monotherapy: twice daily for 3 days after final smoke exposure
Description: A/J mice (males, 5 weeks old) were exposed to cigarette smoke (4% cigarette smoke, diluted with compressed air) for 30 min/day for 11 days using a Tobacco Smoke Inhalation Experiment System for small animals (Model SIS-CS; Sibata Scientific Technology, Tokyo, Japan). Test substances were given intra-nasally (35 μL of solution in 50% DMSO/PBS) and therapeutically twice daily for 3 days after the final cigarette smoke exposure. Twelve hr after the last dosing, animals were anesthetized, the trachea cannulated and bronchoalveolar lavage fluid (BALF) was collected. The numbers of alveolar macrophages and neutrophils were determined by FACS analysis (EPICS® ALTRA II, Beckman Coulter, Inc., Fullerton, Calif., USA) using anti-mouse MOMA2 antibody (macrophage) or anti-mouse 7/4 antibody (neutrophil).

recombinant PI3 kinase α = recombinant PI3 kinase α (Homo sapiens (Human), UniProt P42336); test: Enzyme Inhibition Assay (HTRF PI3K enzyme assay, TR-FRET); assay type: biochemical
recombinant PI3 kinase α, sequence (P42336 whole entry, the tested form may be a part): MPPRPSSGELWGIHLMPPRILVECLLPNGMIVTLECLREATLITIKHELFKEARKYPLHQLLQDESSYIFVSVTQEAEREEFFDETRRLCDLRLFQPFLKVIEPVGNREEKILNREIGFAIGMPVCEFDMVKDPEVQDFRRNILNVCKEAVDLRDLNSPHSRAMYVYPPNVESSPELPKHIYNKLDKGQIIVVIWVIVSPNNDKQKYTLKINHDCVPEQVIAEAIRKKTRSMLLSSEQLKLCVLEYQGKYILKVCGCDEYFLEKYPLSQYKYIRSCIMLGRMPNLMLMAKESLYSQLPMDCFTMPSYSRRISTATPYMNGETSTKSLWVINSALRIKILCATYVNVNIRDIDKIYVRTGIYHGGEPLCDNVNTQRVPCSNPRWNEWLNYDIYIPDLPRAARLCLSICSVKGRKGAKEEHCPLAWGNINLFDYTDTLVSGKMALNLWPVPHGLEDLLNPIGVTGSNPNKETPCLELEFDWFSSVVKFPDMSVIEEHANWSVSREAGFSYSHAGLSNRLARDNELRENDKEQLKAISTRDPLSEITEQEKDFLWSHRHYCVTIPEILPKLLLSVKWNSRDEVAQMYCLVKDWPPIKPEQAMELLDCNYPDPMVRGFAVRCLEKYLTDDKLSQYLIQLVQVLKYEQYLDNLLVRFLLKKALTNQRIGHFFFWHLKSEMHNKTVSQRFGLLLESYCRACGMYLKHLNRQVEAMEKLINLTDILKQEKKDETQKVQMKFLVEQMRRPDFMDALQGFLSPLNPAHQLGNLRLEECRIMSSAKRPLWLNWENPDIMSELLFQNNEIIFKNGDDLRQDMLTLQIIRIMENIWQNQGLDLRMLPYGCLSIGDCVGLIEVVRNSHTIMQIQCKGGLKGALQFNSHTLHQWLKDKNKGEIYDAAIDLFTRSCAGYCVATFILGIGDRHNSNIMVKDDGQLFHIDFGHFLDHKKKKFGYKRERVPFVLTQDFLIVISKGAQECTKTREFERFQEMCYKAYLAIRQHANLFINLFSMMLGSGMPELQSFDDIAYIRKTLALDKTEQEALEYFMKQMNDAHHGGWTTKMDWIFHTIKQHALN
recombinant PI3 kinase α, sequence (P27986 whole entry partner, the tested form may be a part): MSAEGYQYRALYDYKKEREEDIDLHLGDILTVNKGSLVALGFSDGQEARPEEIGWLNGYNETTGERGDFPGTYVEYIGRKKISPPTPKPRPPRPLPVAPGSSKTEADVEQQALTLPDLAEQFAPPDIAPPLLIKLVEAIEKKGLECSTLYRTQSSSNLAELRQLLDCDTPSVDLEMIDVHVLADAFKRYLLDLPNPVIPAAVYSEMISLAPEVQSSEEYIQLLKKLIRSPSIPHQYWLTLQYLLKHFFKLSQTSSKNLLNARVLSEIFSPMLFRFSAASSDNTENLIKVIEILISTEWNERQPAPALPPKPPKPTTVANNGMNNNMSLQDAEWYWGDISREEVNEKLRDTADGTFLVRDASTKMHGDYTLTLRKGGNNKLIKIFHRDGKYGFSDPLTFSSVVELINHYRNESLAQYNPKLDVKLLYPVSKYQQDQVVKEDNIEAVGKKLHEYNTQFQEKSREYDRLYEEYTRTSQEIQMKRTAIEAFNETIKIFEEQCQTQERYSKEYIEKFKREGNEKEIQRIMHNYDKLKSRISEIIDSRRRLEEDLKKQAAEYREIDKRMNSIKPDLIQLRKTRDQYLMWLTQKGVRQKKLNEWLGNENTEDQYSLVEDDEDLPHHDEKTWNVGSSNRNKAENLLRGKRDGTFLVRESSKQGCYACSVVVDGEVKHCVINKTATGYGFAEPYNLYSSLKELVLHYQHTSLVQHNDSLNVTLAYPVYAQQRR
Outline: (§1)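 Recombinant PI3Kα, δ or γ incubated with PIP2 substrate and compound for 2 hr at RT. Stop solution with biotin-PIP3 and GST-GRP1 PH domain/Eu-anti-GST/SA-APC detection mix added, then 15-18 hr at RT. PIP3 formed reduces the TR-FRET signal.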

recombinant PI3 kinase γ = recombinant PI3 kinase γ (Homo sapiens (Human), UniProt P48736); test: as above; assay type: biochemical
recombinant PI3 kinase γ, sequence (P48736 whole entry): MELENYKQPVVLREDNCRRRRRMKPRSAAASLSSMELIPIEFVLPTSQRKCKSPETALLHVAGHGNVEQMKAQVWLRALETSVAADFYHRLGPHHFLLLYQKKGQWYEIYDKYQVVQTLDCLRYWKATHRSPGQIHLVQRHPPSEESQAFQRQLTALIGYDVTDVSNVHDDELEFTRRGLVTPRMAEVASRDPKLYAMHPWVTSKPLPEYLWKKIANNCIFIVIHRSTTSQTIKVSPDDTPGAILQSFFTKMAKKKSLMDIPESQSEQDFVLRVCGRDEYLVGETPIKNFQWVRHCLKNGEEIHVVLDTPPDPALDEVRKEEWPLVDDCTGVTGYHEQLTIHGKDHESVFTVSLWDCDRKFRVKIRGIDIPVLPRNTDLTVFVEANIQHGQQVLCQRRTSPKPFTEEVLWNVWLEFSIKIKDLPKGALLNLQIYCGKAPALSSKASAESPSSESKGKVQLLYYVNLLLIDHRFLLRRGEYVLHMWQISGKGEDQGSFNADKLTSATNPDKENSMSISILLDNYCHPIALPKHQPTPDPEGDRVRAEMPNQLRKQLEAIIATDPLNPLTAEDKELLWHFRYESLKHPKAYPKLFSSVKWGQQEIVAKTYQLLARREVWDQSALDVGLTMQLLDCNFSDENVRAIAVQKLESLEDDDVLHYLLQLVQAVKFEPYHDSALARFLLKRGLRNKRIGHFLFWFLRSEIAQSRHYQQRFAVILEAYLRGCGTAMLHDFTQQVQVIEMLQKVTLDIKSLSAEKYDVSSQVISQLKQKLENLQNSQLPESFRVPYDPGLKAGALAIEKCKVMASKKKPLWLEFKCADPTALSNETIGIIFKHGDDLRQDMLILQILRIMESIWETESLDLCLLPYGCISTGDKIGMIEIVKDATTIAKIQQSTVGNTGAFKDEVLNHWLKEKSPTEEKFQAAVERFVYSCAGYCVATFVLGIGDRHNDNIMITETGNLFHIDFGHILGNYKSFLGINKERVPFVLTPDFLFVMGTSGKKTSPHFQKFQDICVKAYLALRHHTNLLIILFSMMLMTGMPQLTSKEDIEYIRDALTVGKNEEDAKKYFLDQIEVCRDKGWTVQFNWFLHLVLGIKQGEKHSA
Outline: as §1

recombinant PI3 kinase δ = recombinant PI3 kinase δ (Homo sapiens (Human), UniProt O00329); test: as above; assay type: biochemical
recombinant PI3 kinase δ, sequence (O00329 whole entry): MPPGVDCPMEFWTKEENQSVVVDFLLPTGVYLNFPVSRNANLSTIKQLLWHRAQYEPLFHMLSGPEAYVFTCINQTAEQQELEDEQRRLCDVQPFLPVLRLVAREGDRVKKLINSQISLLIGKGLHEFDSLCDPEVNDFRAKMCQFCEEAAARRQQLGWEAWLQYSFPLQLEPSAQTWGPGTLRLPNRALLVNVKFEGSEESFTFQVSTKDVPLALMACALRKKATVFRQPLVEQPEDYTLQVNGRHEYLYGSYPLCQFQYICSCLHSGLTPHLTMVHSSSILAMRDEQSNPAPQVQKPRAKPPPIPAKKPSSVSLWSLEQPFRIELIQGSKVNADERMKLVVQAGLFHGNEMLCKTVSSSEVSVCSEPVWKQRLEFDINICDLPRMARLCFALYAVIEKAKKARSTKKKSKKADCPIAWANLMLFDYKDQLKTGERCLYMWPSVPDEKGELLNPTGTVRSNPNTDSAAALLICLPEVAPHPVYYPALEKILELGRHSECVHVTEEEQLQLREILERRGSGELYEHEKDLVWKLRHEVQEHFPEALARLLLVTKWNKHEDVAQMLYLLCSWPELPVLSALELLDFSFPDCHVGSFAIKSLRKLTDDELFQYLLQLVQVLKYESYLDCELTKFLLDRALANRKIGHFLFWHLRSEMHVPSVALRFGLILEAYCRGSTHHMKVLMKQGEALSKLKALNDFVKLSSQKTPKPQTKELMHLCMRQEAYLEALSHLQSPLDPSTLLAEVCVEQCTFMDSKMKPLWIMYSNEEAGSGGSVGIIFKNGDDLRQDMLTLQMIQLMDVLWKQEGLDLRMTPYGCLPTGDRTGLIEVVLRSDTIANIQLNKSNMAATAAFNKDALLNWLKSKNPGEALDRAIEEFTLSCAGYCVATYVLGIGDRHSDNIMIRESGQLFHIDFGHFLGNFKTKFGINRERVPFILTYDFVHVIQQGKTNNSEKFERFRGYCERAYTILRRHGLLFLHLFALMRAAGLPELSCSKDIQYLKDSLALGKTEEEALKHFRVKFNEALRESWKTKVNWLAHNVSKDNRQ
recombinant PI3 kinase δ, sequence (P27986 whole entry partner): as the sequence (P27986 whole entry partner, the tested form may be a part) above
Outline: as §1

[4] = test system: LPS induced neutrophilia in mouse lung; test: LPS-Induced Neutrophilia in the Mouse; assay type: in vivo; conditions: for inhibition of LPS-induced neutrophilia (neutrophil influx into the lung), in words: intra-tracheal dosing before LPS challenge; for % Inhibition of neutrophils in BAL at the dose indicated (mg/mL) (0.05): 0.05 mg/mL intra-tracheal; for % Inhibition of neutrophils in BAL at the dose indicated (mg/mL) (0.05) / % Inhibition of neutrophils in BAL at the dose indicated (mg/mL) (0.2) / % Inhibition of neutrophils in BAL at the dose indicated (mg/mL) (1.0): 2 hr before LPS challenge; for % Reduction of inhibition at 8 hr compared with 2 hr: 0.2 mg/mL dose; for % Reduction of inhibition at 8 hr compared with 2 hr / % Inhibition at 0.2 mg/mL dose at time indicated (hr) (2) / % Inhibition at 0.2 mg/mL dose at time indicated (hr) (8): mouse lung; for % Inhibition of neutrophils in BAL at the dose indicated (mg/mL) (0.2): 0.2 mg/mL intra-tracheal; for % Inhibition at 0.2 mg/mL dose at time indicated (hr) (2): dosed 2 hr before LPS challenge; for % Inhibition at 0.2 mg/mL dose at time indicated (hr) (8): dosed 8 hr before LPS challenge; for % Inhibition of neutrophils in BAL at the dose indicated (mg/mL) (1.0): 1.0 mg/mL intra-tracheal
Description: Non-fasted mice were dosed by the intra-tracheal route with either vehicle, or the test substance at the time points (“pre-dose”) indicated with respect to the start of LPS treatment. At T=0, mice were placed into an exposure chamber and exposed to LPS. Eight hr after LPS challenge, animals were anesthetized, the trachea cannulated and BALF extracted by infusing and withdrawing 1 mL of PBS into the lungs via a tracheal catheter. Total and differential white cell counts in the BALF samples were measured using a Neubaur haemocytometer. Cytospin smears of the BALF samples were prepared by centrifugation at 200 rpm for 5 min at RT and stained using a DiffQuik stain system (Dade Behring). Cells were counted using oil immersion microscopy.

[5] = test system: H2O2 induced pAkt in D-U937 cells; test: PI3Kδ Cell Based Assay (H2O2 induced pAkt); conditions: Homo sapiens, dU937
Outline: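 U937 cells differentiated to macrophage-type cells with PMA (100 ng/mL, 48 to 72 hr), then stimulated with H2O2. pAkt and total Akt detected by antibody-based immunoassay. Ratio of pAkt to total Akt signal used; IC50 from concentration-response curves of serially diluted compounds.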

[6] = activity range, read-out: PI3 Kinase Inhibition IC50 values at stated Isozyme α
[7] = read-out: PI3 Kinase Inhibition IC50 values at stated Isozyme (nM) α
[8] = activity range, read-out: PI3 Kinase Inhibition IC50 values at stated Isozyme γ
[9] = read-out: PI3 Kinase Inhibition IC50 values at stated Isozyme (nM) γ
[10] = activity range, read-out: PI3 Kinase Inhibition IC50 values at stated Isozyme δ
[11] = read-out: PI3 Kinase Inhibition IC50 values at stated Isozyme (nM) δ
[12] = activity range, D-U937 cells, read-out: Cellular Activity IC50 values (H2O2 induced pAkt D-U937 Cells)
[13] = read-out: Cellular Activity IC50 values (H2O2 induced pAkt (nM) D-U937 Cells)

| SMILES | Cell Viability MTT Assay in D-U937 cells at 4 hr [1] | Cell Viability MTT Assay in D-U937 cells at 24 hr [1] | atropisomerism by chiral stationary phase HPLC [2] | IC50 (recombinant PI3 kinase α; [6]) [nM] | IC50 (recombinant PI3 kinase γ; [8]) [nM] | IC50 (recombinant PI3 kinase γ; [9]) [nM] | IC50 (recombinant PI3 kinase δ; [10]) [nM] | inhibition of LPS-induced neutrophilia (neutrophil influx into the lung), in words ([4]; mouse) | IC50 [5, 12] [nM] | also measured |
| --- | --- | --- | --- | --- | --- | --- | --- | --- | --- | --- |
| C#Cc1cccc2nc(Cn3nc(-c4cccc(O)c4)c4c(N)ncnc43)n(Cc3ccccc3Cl)c(=O)c12 [Example 1, 2-((4-Amino-3-(3-hydroxyphenyl)-1H-pyrazolo[3,4-d]pyrimidin-1-yl)methyl)-3-(2-chlorobenzyl)-5-ethynylquinazolin-4(3H)-one] | − (− <30%) | − (− <30%) | no evidence for atropisomerism was observed | 50 to 1000 | 50 to 1000 | 234 | < 50 | Inhibition of LPS-induced neutrophilia | < 10 | anti-inflammatory activity when co-administered with fluticasone propionate ([3]; co-administered with fluticasone propionate at a dose which lacks effect as monotherapy): marked enhancement of anti-inflammatory activity; anti-inflammatory activity (BALF neutrophils and alveolar macrophages), monotherapy [3]: inhibition; also recorded: possesses anti-inflammatory activity; IC50 (recombinant PI3 kinase α; [7]): 199 nM; IC50 (recombinant PI3 kinase δ; [11]): 7 nM; IC50 [5, 13]: 1.1 nM |
| Nc1ncnc2c1c(-c1ccc(O)cc1)nn2Cc1nc2cccc(C#CCCCC(=O)O)c2c(=O)n1Cc1ccccc1Cl [Example 4, 6-(2-((4-Amino-3-(4-hydroxyphenyl)-1H-pyrazolo[3,4-d]pyrimidin-1-yl)methyl)-3-(2-chlorobenzyl)-4-oxo-3,4-dihydroquinazolin-5-yl)hex-5-ynoic acid] | − (− <30%) | − (− <30%) |  |  | < 50 | 20 |  | dose dependent inhibition |  | % Inhibition of neutrophils in BAL at the dose indicated (mg/mL) (0.05) ([4]; mouse): 3.2%; % Reduction of inhibition at 8 hr compared with 2 hr [4]: 73%; % Inhibition of neutrophils in BAL at the dose indicated (mg/mL) (0.2) ([4]; mouse): 47.2%; % Inhibition at 0.2 mg/mL dose at time indicated (hr) (2) [4]: 47.2%; % Inhibition at 0.2 mg/mL dose at time indicated (hr) (8) [4]: 12.9%; % Inhibition of neutrophils in BAL at the dose indicated (mg/mL) (1.0) ([4]; mouse): 64.6% |
| Nc1ncnc2c1c(-c1ccc(O)cc1)nn2Cc1nc2cccc(C#CCCCC(=O)N3CCOCC3)c2c(=O)n1Cc1ccccc1Cl [Example 5, 2-((4-Amino-3-(4-hydroxyphenyl)-1H-pyrazolo[3,4-d]pyrimidin-1-yl)methyl)-3-(2-chlorobenzyl)-5-(6-morpholino-6-oxohex-1-yn-1-yl)quinazolin-4(3H)-one] | − (− <30%) | − (− <30%) |  | < 50 | < 50 | 16 | < 50 | dose dependent inhibition | < 10 | IC50 (recombinant PI3 kinase α; [7]): 20 nM; IC50 (recombinant PI3 kinase δ; [11]): 20 nM; % Inhibition of neutrophils in BAL at the dose indicated (mg/mL) (0.05) ([4]; mouse): 4.8%; % Reduction of inhibition at 8 hr compared with 2 hr [4]: 44%; % Inhibition of neutrophils in BAL at the dose indicated (mg/mL) (0.2) ([4]; mouse): 37.7%; % Inhibition at 0.2 mg/mL dose at time indicated (hr) (2) [4]: 37.7%; % Inhibition at 0.2 mg/mL dose at time indicated (hr) (8) [4]: 21.2%; % Inhibition of neutrophils in BAL at the dose indicated (mg/mL) (1.0) ([4]; mouse): 58.5%; level of anti-inflammatory activity at the 8 hr time point relative to value 2 hr after drug treatment ([4]; same dose, LPS challenge, mouse): over half of its original value; IC50 [5, 13]: 0.58 nM |
| C#Cc1cccc2nc(Cn3nc(-c4ccc(O)cc4)c4c(N)ncnc43)n(Cc3cccc(Cl)c3F)c(=O)c12 [Example 33, 2-((4-Amino-3-(4-hydroxyphenyl)-1H-pyrazolo[3,4-d]pyrimidin-1-yl)methyl)-3-(3-chloro-2-fluorobenzyl)-5-ethynylquinazolin-4(3H)-one] | − (− <30%) | − (− <30%) | no evidence for atropisomerism was observed | 50 to 1000 | 50 to 1000 |  | < 50 |  | < 10 |  |
| C#Cc1cccc2nc(Cn3nc(-c4ccc(O)cc4)c4c(N)ncnc43)n(Cc3c(F)cccc3F)c(=O)c12 [Example 34, 2-((4-Amino-3-(4-hydroxyphenyl)-1H-pyrazolo[3,4-d]pyrimidin-1-yl)methyl)-3-(2,6-difluorobenzyl)-5-ethynylquinazolin-4(3H)-one] | − (− <30%) | − (− <30%) | no evidence for atropisomerism was observed | 50 to 1000 | 50 to 1000 |  | < 50 |  | < 10 |  |
| C#Cc1cccc2nc(Cn3nc(-c4ccc(O)cc4)c4c(N)ncnc43)n(Cc3ccc(F)cc3)c(=O)c12 [Example 38, 2-((4-Amino-3-(4-hydroxyphenyl)-1H-pyrazolo[3,4-d]pyrimidin-1-yl)methyl)-5-ethynyl-3-(4-fluorobenzyl) quinazolin-4(3H)-one] | − (− <30%) | − (− <30%) | no evidence for atropisomerism was observed | 50 to 1000 | 50 to 1000 |  | < 50 |  | < 10 |  |
| C[C@@H]1C[C@H]2[C@@H]3CCC4=CC(=O)C=C[C@]4(C)[C@@]3(F)[C@@H](O)C[C@]2(C)[C@@]1(O)C(=O)CO [dexamethasone, reference compound] |  |  |  |  |  |  |  |  |  | anti-inflammatory activity (BALF neutrophils and alveolar macrophages) ([3]; 0.3-10 mg/kg, p.o.): inactive |
| CCC(=O)O[C@]1(C(=O)SCF)[C@H](C)C[C@H]2[C@@H]3C[C@H](F)C4=CC(=O)C=C[C@]4(C)[C@@]3(F)[C@@H](O)C[C@@]21C [fluticasone propionate, reference compound] |  |  |  |  |  |  |  |  |  | anti-inflammatory activity (BALF neutrophils and alveolar macrophages), monotherapy [3]: lacks effect as monotherapy |
